In US11970483B2, “Heterocyclic compound” (Takeda Pharmaceutical Company Limited, priority 2018, dated 2024):

Columns and labels:
MDR1 = target: T1, MDR1 (Homo sapiens, UniProt P08183); assay: MDR1 membrane permeability test; assay type: in vitro ADME; settings: human MDR1-expressing LLC-PK1 cells, 10 μmol/L test compound, pH 7.4, read-out: Efflux ratio (ER)
T1 construct: expressed in transfected cells; host or cells: LLC-PK1 cells (porcine kidney)
Experimental: MDR1 membrane permeability test
When MDR1 is expressed in excess in LLC-PK1 cell, which is a polar cell, MDR1 is localized in apical membrane (A), thus promoting transcellular transport from the basement membrane side (B) toward direction A. When a ratio to the transcellular transport in the opposite direction is taken and a ratio to a control cell in which a mock vector has been introduced is further taken, an efflux ratio of MDR1 to simple diffusion (corrected efflux ratio) is calculated. Similarly, when a brain/plasma concentration ratio in Mdr1(−/−) mouse is divided by a brain/plasma concentration ratio in wild-type mouse, an efflux ratio of Mdr1 to simple diffusion in blood-brain barrier (BBB) (Kp, brain ratio, higher value means lower central nervous system permeability) is calculated. Adachi Y. et al. (Reference 1) has reported a positive correlation between corrected efflux ratio and Kp, brain ratio (FIG. 5(C)), and efflux ratio in MDR1 expressing cell and Kp, brain ratio (FIG. 5(B)).
To confirm the central nervous system permeability of the compounds of the present invention, a MDR1 membrane permeability test was performed by the following method.
Digoxin and lucifer yellow (LY) were purchased from Sigma-Aldrich, Diclofenac, colchicine and alprenolol were purchased from Wako Pure Chemical Industries, Ltd., and other reagents used were commercially available products of special grade.
Human MDR1-expressing LLC-PK1 cells were cultured according to the report of Takeuchi et al. (Reference 2). Human MDR1-expressing LLC-PK1 cells were cultured in 10% fetal bovine serum (Invitrogen), 500 μg/ml G418 (Invitrogen), 150 ng/ml colchicine-containing M199 medium (Invitrogen) under 5% CO2 conditions at 37° C.
Transcellular transport was performed according to the report of Sugimoto et al. (Reference 3). The cells were cultured for 3 days on HTS Transwell (registered trademark) 96 well permeable support (pore size 0.4 μm, 0.143 cm^2 surface area, Corning Life Sciences) having polyethylene terephthalate membrane on which the cells had been seeded at 3.45×10^4 cells/well. […] After 1 hr, the sample was collected from the side opposite to the side where the drug solution was added, and the concentration of the test compound was measured by LC-MS/MS. […]
LY was measured by a fluorescence plate reader (Fluoroskan Ascent FL).
Papp, A to B and Papp, B to A (apparent permeability) were calculated from the formula (1), and the efflux ratio (ER) was calculated from the formula (2). […]

Male ICR mice = assay: Mouse defecation experiment; assay type: in vivo; settings: oral, mean±standard error
Experimental: Mouse Defecation Experiment
Male ICR mice (6-7 weeks old) were used after an acclimation period for about 1 week. A test drug (1 mg/kg or 3 mg/kg) was suspended in 0.5% methylcellulose solution and orally administered at a volume of 10 mL/kg, and the number of feces 2 hr later was counted. Only 0.5% methylcellulose was administered to a solvent administration group.

T1 sequence (P08183 whole entry): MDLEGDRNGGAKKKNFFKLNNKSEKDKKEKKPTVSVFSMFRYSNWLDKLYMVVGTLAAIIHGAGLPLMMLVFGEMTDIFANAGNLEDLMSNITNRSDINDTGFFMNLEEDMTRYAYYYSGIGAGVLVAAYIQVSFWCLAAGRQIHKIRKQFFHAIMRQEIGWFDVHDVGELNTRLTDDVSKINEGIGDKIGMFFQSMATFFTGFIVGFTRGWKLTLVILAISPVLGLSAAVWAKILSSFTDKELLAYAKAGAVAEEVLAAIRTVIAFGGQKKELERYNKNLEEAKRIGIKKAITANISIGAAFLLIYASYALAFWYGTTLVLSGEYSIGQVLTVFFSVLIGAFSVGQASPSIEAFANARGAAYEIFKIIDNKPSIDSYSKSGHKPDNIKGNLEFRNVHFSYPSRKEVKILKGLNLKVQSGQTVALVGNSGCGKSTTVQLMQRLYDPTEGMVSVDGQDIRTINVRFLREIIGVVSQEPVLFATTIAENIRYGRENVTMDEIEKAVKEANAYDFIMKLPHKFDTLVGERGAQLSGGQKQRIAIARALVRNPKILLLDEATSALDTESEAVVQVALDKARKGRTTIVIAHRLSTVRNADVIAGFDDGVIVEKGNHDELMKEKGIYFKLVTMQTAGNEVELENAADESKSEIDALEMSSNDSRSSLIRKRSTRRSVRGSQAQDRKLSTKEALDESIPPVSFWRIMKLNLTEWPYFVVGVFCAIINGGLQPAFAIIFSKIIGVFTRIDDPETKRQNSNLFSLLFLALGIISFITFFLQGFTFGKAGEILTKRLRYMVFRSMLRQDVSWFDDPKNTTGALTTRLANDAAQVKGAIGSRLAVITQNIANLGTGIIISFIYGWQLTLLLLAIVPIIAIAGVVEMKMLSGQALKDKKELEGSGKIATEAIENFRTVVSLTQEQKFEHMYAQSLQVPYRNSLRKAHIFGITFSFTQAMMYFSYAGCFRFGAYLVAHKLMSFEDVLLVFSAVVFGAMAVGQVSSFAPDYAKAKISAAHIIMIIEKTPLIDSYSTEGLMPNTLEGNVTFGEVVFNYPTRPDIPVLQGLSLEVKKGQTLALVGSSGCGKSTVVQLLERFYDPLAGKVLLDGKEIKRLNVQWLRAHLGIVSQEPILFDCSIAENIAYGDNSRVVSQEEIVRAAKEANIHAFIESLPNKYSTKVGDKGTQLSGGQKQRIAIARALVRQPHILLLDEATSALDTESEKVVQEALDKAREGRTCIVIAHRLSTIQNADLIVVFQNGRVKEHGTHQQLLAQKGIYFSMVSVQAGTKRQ

## Cc1c(Cc2ccc(-c3cn(C)nn3)cc2)cc(C(=O)N[C@H]2CCOC[C@@H]2O)c2c1CCO2 [Example 1, 1,5-anhydro-2,3-dideoxy-3-[(4-methyl-5-{[4-(1-methyl-1H-1,2,3-triazol-4-yl)phenyl]methyl}-2,3-dihydro-1-benzofuran-7-carbonyl)amino]-L-threo-pentitol]
MDR1
  efflux ratio at 1 h, 10 μmol/L: 3
Male ICR mice; 1 mg/kg
  number of feces 2 hr later: 8.8 ± 2.1

## COCCNC(=O)c1ccc(Cc2cc(C(=O)N[C@H]3CCOC[C@@H]3O)c3c(c2C)CCO3)cc1F [Example 27, 1,5-anhydro-2,3-dideoxy-3-{[5-({3-fluoro-4-[(2-methoxyethyl)carbamoyl]phenyl}methyl)-4-methyl-2,3-dihydro-1-benzofuran-7-carbonyl]amino}-L-threo-pentitol]
MDR1
  efflux ratio at 1 h, 10 μmol/L: 6.2
Male ICR mice; 1 mg/kg
  number of feces 2 hr later: 7.4 ± 0.9
Male ICR mice; 3 mg/kg
  number of feces 2 hr later: 6.2 ± 1.0

## Cc1c(Cc2ccc(C(=O)NCC(=O)N(C)C)c(F)c2)cc(C(=O)N[C@H]2CCOC[C@@H]2O)c2c1CCO2 [Example 28, 1,5-anhydro-2,3-dideoxy-3-({5-[(4-{[2-(dimethylamino)-2-oxoethyl]carbamoyl}-3-fluorophenyl)methyl]-4-methyl-2,3-dihydro-1-benzofuran-7-carbonyl}amino)-L-threo-pentitol]
MDR1
  efflux ratio at 1 h, 10 μmol/L: 12
Male ICR mice; 1 mg/kg
  number of feces 2 hr later: 7.2 ± 1.9
Male ICR mice; 3 mg/kg
  number of feces 2 hr later: 6.2 ± 1.3

## Cc1c(Cc2ccc(C(=O)NC[C@H]3CCCO3)c(F)c2)cc(C(=O)N[C@H]2CCOC[C@@H]2O)c2c1CCO2 [Example 29, 1,5-anhydro-2,3-dideoxy-3-[(5-{[3-fluoro-4-({[(2R)-oxolan-2-yl]methyl}carbamoyl)phenyl]methyl}-4-methyl-2,3-dihydro-1-benzofuran-7-carbonyl)amino]-L-threo-pentitol]
MDR1
  efflux ratio at 1 h, 10 μmol/L: 6
